Assay results: ChEMBL document CHEMBL1127168, “Synthesis and sar study of novel CCK-B antagonists” (Bioorg Med Chem Lett, 1993)

Tests used:
[1] = target: T1, Cholecystokinin receptor type A (Rattus norvegicus, UniProt P30551); test: In vitro inhibition of [125I]- Bolton Hunter CCK-8 to Cholecystokinin type A receptor in the rat pancreas.
T1 sequence (P30551 whole entry): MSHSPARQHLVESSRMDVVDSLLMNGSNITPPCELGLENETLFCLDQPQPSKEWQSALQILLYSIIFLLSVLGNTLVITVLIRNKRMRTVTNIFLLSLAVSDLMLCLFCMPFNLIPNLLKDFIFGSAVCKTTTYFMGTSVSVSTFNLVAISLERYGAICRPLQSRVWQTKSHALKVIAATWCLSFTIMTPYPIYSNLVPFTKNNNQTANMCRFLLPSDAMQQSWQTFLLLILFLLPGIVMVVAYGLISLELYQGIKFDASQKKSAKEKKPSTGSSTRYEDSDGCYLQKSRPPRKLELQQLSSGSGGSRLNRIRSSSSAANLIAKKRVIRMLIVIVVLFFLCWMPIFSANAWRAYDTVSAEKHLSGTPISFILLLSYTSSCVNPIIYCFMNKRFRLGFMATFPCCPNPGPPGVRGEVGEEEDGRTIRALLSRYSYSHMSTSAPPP

[2] = target: T2, Gastrin/cholecystokinin type B receptor (Mus musculus, UniProt P56481); test: In vitro inhibition of [125I]- Bolton Hunter CCK-8 binding to Cholecystokinin type B receptor in the mouse cerebral cortex.; type: tissue-based
T2 sequence (P56481 whole entry): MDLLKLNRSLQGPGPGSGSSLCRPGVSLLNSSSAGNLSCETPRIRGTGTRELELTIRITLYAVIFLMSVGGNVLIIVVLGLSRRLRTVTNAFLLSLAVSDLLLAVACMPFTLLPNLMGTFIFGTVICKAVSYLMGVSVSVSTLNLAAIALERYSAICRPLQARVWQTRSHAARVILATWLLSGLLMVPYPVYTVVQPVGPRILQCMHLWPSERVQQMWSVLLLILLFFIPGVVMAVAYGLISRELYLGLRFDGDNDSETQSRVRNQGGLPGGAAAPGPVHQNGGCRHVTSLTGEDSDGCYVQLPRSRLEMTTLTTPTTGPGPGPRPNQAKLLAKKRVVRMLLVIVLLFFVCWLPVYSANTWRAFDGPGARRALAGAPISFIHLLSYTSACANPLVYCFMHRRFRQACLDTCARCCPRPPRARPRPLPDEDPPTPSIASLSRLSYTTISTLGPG

[3] = Ratio of inhibition at CCK-A compared to CCK-B receptors.

C[C@@](Cc1c[nH]c2ccccc12)(NC(=O)OC1[C@H]2C[C@@H]3C[C@@H](C[C@H]1C3)C2)C(=O)N(CCc1ccccc1)CC(=O)O (some centres undefined)
IC50 [1]: > 1000 nM

COC(=O)CCCCCCN(CCc1ccccc1)C(=O)[C@](C)(Cc1c[nH]c2ccccc12)NC(=O)OC1[C@H]2C[C@@H]3C[C@@H](C[C@H]1C3)C2 (some centres undefined)
IC50 [2]: 177 nM
Ratio [3]: 35.7
IC50 [1]: 6320 nM

CC(Cc1c[nH]c2ccccc12)(NC(=O)OC1[C@H]2C[C@@H]3C[C@@H](C[C@H]1C3)C2)C(=O)N(CCc1ccccc1)CC(=O)O (single isomer, unassigned)
IC50 [1]: 1080 nM

C[C@@](Cc1c[nH]c2ccccc12)(NC(=O)OC1[C@H]2C[C@@H]3C[C@@H](C[C@H]1C3)C2)C(=O)N(CCCCCCC(=O)O)CCc1ccccc1 (some centres undefined)
IC50 [2]: 348 nM
Ratio [3]: > 2.9
IC50 [1]: > 1000 nM

COC(=O)CCN(CCc1ccccc1)C(=O)C(C)(Cc1c[nH]c2ccccc12)NC(=O)OC1[C@H]2C[C@@H]3C[C@@H](C[C@H]1C3)C2 (single isomer, unassigned)
IC50 [2]: 113 nM
Ratio [3]: 17.5
IC50 [1]: 1980 nM

COC(=O)CN(CCc1ccccc1)C(=O)[C@](C)(Cc1c[nH]c2ccccc12)NC(=O)OC1[C@H]2C[C@@H]3C[C@@H](C[C@H]1C3)C2 (some centres undefined)
IC50 [2]: 532 nM
Ratio [3]: 4.4
IC50 [1]: 2330 nM

COC(=O)CN(CCc1ccccn1)C(=O)C(C)(Cc1c[nH]c2ccccc12)NC(=O)OC1[C@H]2C[C@@H]3C[C@@H](C[C@H]1C3)C2 (single isomer, unassigned)
IC50 [2]: 90.9 nM
Ratio [3]: 27.7
IC50 [1]: 2520 nM

C[C@@](Cc1c[nH]c2ccccc12)(NC(=O)OC1[C@H]2C[C@@H]3C[C@@H](C[C@H]1C3)C2)C(=O)N(CCc1ccccn1)CC(=O)O (some centres undefined)
IC50 [2]: 2.31 nM
Ratio [3]: 146
IC50 [1]: 337 nM

C[C@@](Cc1c[nH]c2ccccc12)(NC(=O)OC1[C@H]2C[C@@H]3C[C@@H](C[C@H]1C3)C2)C(=O)N(CCC(=O)O)CCc1ccccc1 (some centres undefined)
IC50 [1]: 672 nM

C[C@@](Cc1c[nH]c2ccccc12)(NC(=O)OC1[C@H]2C[C@@H]3C[C@@H](C[C@H]1C3)C2)C(=O)NCCc1ccccn1 (some centres undefined)
IC50 [2]: 15.5 nM
Ratio [3]: 119
IC50 [1]: 1850 nM

CC(Cc1c[nH]c2ccccc12)(NC(=O)OC1[C@H]2C[C@@H]3C[C@@H](C[C@H]1C3)C2)C(=O)N(CCCC(=O)O)CCc1ccccc1 (single isomer, unassigned)
IC50 [2]: 80.2 nM
Ratio [3]: 7
IC50 [1]: 564 nM

C[C@@](Cc1c[nH]c2ccccc12)(NC(=O)OC1C2CC3CC(C2)CC1C3)C(=O)N[C@@H](CC(=O)O)Cc1ccccc1 (some centres undefined)
IC50 [1]: 25.5 nM

CC(Cc1c[nH]c2ccccc12)(NC(=O)OC1[C@H]2C[C@@H]3C[C@@H](C[C@H]1C3)C2)C(=O)N(CCC(=O)O)CCc1ccccc1 (single isomer, unassigned)
IC50 [1]: 527 nM
